{"source": "patent US9238073B2", "about": "“Pharmaceutical composition containing sympathomimetic amine salt and co-distillable additive” (Wyeth LLC, priority 2006, dated 2016)", "origin": "cited, not measured here", "conditions": "(R)-methamphetamine from reduction of (-)-pseudoephedrine", "data": [{"substance": "(R)-methamphetamine", "values": [{"measurement": "psychoactivity relative to (S)-methamphetamine", "result": "one-tenth"}]}]}
